What was measured:
Jurkat cells [1] = assay: GSK3α body (puncta) formation by confocal immunofluorescence microscopy; format: cell-based, human; conditions: for Formation of GSK3α puncta on addition of amino acid: asparagine depleted cell
Procedure: (§1) FIGS. 4A-4D show asparagine starvation induces phase separation of GSK3α into cytoplasmic bodies (or puncta), but not GSK3b. (FIG. 4A) Confocal immunofluorescence microscopy for GSK3α or the nuclear marker DAPI, in Jurkat cells treated with vehicle or asparaginase (100 U/L) for 48 hours. (FIG. 4B) Confocal immunofluorescence microscopy for GSK3β or the nuclear marker DAPI, in Jurkat cells treated with vehicle or asparaginase (100 U/L) for 48 hours. (FIG. 4C) Number of puncta per 50 cells. (FIG. 4D) Formation of GSK3α bodies is selective to asparaginase, and is not induced by other cellular stressors such as other chemotherapeutics or heat shock. ****, p<0.0001. ns (not significant), p>0.05.
FIGS. 6A and 6B show GSK3α bodies function in the protein ubiquitination-proteasomal degradation pathway in response to asparagine starvation. (FIG. 6A) Jurkat T-ALL cells were treated with vehicle, asparaginase, the GSK3α inhibitor BRD0705, or the combination of asparaginase and BRD0705 (combo). Immunofluorescence microscopy was then performed for GSK3α, K48-linked ubiquitin chains (which mark proteins for proteasomal degradation), or the nuclear marker DAPI. Note that GSK3a can still undergo translocation into GSK3a bodies even if its enzymatic activity is inhibited, but the ability of GSK3a bodies to ubiquitinate proteins is completely dependent on the enzymatic activity of GSK3α. (FIG. 6B) Quantification of the immunofluorescence in 50 cells from each condition. Coloc refers to co-localization of both GSK3α and ubiquitin (ub), as determined by yellow color on the merged confocal image. ****, p<0.0001. ns (not significant), p>0.05.
(§2) To test whether GSK3α undergoes spatial sequestration in response to asparaginase, we applied immunofluorescence using paralog-selective antibodies (FIG. S4).

[2] = test system: CCD841 cells derived from normal human intestinal epithelium; assay: Survival under essential amino acid starvation; format: cell-based
Jurkat T-ALL cells = assay: Co-localization of K48-linked ubiquitin with GSK3α bodies by immunofluorescence; format: cell-based, human; conditions: combination with asparaginase
Procedure: (FIG. 6A) Jurkat T-ALL cells were treated with vehicle, asparaginase, the GSK3α inhibitor BRD0705, or the combination of asparaginase and BRD0705 (combo). Immunofluorescence microscopy was then performed for GSK3α, K48-linked ubiquitin chains (which mark proteins for proteasomal degradation), or the nuclear marker DAPI. […] (FIG. 6B) Quantification of the immunofluorescence in 50 cells from each condition. Coloc refers to co-localization of both GSK3α and ubiquitin (ub), as determined by yellow color on the merged confocal image. ****, p<0.0001. ns (not significant), p>0.05.

Jurkat cells [3] = test system: Jurkat cells
Excerpt: It was then sought to determine whether GSK3α promotes survival in response to starvation of these amino acids. […] It was then asked whether GSK3α promotes the survival of normal cells in response to essential amino acid starvation, using normal human CD34+ hematopoietic progenitors or CCD841 cells derived from normal human intestinal epithelium (38).

[4] = test system: normal human CD34+ hematopoietic progenitors; assay: Survival under essential amino acid starvation; format: cell-based
Jurkat cells [5] = assay: GSK3β localization by confocal immunofluorescence microscopy; format: cell-based, human; conditions: asparaginase 100 U/L for 48 hours
Procedure: as §1, §2

Jurkat cells [6] = assay: Proteinase K protection assay of GSK3α; format: cell-based, human; conditions: Jurkat cells permeabilized with digitonin, Western blot
Procedure: Jurkat cells were treated with vehicle, asparaginase (×48 hrs) to induce formation of GSK3α bodies, or Wnt3A to induce GSK3 sequestration in membrane-bound multivesicular bodies (Taelman et al., 2010). Cells were permeabilized, and treated with vehicle or proteinase K to digest free cytoplasmic proteins. Triton is a control that dissolves all membranes.
It was then determined whether GSK3α bodies are membraneless using the proteinase K protection assay. Jurkat cells were treated with vehicle or asparaginase to trigger GSK3α body formation. As a positive control, treatment with Wnt3A was included, which triggers sequestration of GSK3 inside membrane-bound multivesicular endosomes (19). Following cytoplasmic membrane permeabilization with digitonin, cells were treated with proteinase K, and GSK3α protein levels were assessed by Western blot analysis. […] These findings indicate that GSK3α bodies are membraneless.

Molecule	Survival under essential amino acid starvation [2]	Survival under essential amino acid starvation [4]	Formation of GSK3α puncta on addition of amino acid (Jurkat cells [1])	Accessibility of GSK3α to proteinase K digestion (Jurkat cells [6])	other results
CC[C@@]1(c2ccccc2)C2=C(CC(C)(C)CC2=O)Nc2[nH]ncc21 [BRD0705]	impaired survival	impaired survival			Effect on GSK3α biomolecular condensation in response to asparaginase (Jurkat cells [1]; Jurkat T-ALL cells, combination with asparaginase): did not block the ability of GSK3α to undergo biomolecular condensation; Accumulation of ubiquitin in GSK3α bodies (Jurkat T-ALL cells): did prevent accumulation of ubiquitin in GSK3α bodies; Viability in leucine-deficient medium (Jurkat cells [3]; leucine-deficient medium): impaired viability; Viability in valine-deficient medium (Jurkat cells [3]; valine-deficient medium): impaired viability
CC[C@]1(c2ccccc2)C2=C(CC(C)(C)CC2=O)Nc2[nH]ncc21 [BRD5648]	had no effect	had no effect			
NC(=O)C[C@H](N)C(=O)O [L-Asn, asparagine]			inhibits the formation of GSK3α puncta		
NC(=O)CC[C@H](N)C(=O)O [L-Glut, glutamine]			does not		
asparaginase				remained accessible to proteinase K digestion	GSK3α body formation (condensation into cytoplasmic puncta) induced by treatment (Jurkat cells [1]; Jurkat cells, asparaginase 100 U/L for 48 hours): triggered its condensation into distinct cytoplasmic puncta; GSK3β localization after treatment (Jurkat cells [5]): remained broadly distributed regardless of asparaginase therapy
Wnt3A: positive control that triggers sequestration of GSK3 inside membrane-bound multivesicular endosomes (protein, UniProt P56704 19-352, looked up) Protein Wnt-3a: SYPIWWSLAVGPQYSSLGSQPILCASIPGLVPKQLRFCRNYVEIMPSVAEGIKIGIQECQHQFRGRRWNCTTVHDSLAIFGPVLDKATRESAFVHAIASAGVAFAVTRSCAEGTAAICGCSSRHQGSPGKGWKWGGCSEDIEFGGMVSREFADARENRPDARSAMNRHNNEAGRQAIASHMHLKCKCHGLSGSCEVKTCWWSQPDFRAIGDFLKDKYDSASEMVVEKHRESRGWVETLRPRYTYFKVPTERDLVYYEASPNFCEPNPETGSFGTRDRTCNVSSHGIDGCDLLCCGRGHNARAERRREKCRCVFHWCCYVSCQECTRVYDVHTCK				protected from protease digestion	
